Source: US10238713B2, “Cyclic tetrapeptides and therapeutic applications thereof” (LODZ UNIVERSITY OF TECHNOLOGY, priority 2010, dated 2019)
Read-outs that look alike come from different tables or passages of the source. Non-standard residues stand in square brackets, D forms with d. Residues, ends and D or L forms follow the SMILES beside them. β3hF = N[C@H](CC(=O)O)Cc1ccccc1

Legend:
[1] = tested on: BALB/c mice, immune response to TDI; test: Toluene diisocyanate (TDI)-induced ear inflammation in BALB/c mice; assay type: in vivo
Experimental: BALB/c female mice, 8-10 weeks old, were delivered by the Institute of Laboratory Medicine, Łódź, Poland. The mice were fed a commercial, pelleted food and water ad libitum. The local ethics committee approved the study.
The test was performed according to Yamamoto, Eur. J. Pharmacol., 2006, 550, 166-172, with minor modifications. Mice were shaved on the abdomen (2×2 cm area) and after 24 h 100 μl of 3% TDI in acetone was applied through 3 consecutive days. After 14 days the reaction was elicited by application of 50 μl of 0.3% TDI on both sides of the ears. The procedure was repeated 5 times every 3 days. Ear thickness was measured using a spring caliper (Mitutoyo) 5 h and 24 h after each challenge with TDI.
Compound I-A was applied topically in the form of 0.1% ointment on both sides of the ears (total volume of 100 μl-50 μl per ear), one hour after each challenge with TDI. The reference drugs were applied in a similar way.
Superficial parotid, mandibular and accessory mandibular lymph nodes were isolated, homogenized by pressing against a stainless screen into PBS, washed 2× with PBS and re-suspended in PBS containing 0.2% Trypan blue. The total and nonviable cell numbers were counted using a light microscope and Bürker's hemocytometer.
Mice were subjected to halothane anesthesia and bled from the retro-orbital plexus, followed by the cervical dislocation. The number of blood leukocytes was determined by dilution of blood in Turk's solution and counting the cells in a hemocytometer. Blood smears were prepared on microscope glass, dried and stained with Giemsa and May-Grünwald reagents. The smears were subsequently reviewed histologically. The cell numbers were presented per 1 μl and the blood cell compositions as a percentage of a given cell type.
Mice were given 1 mg of Evans blue in 0.2 ml of 0.9% NaCl, intravenously. After 30 min mice were sacrificed, the ears were cut off, weighed and immersed in 50 μl of 1M KOH for 18 h at 37° C. The dye was extracted from the ears using 450 μl of 0.2 M phosphate acid and acetone (5:13 ratio). The samples were centrifuged at 3,000 rpm for 15 min. The optical densities (OD) of the supernatants were measured at 630 nm. The amount of Evans blue (g/ml) was determined based on a standard curve. The results were presented as the amount of Evans blue per 100 mg of wet tissue. Mice treated only with the eliciting dose of antigen served as a background control.
The auricles were fixed in 4% formalin solution for 48 h, washed for 24 h, dehydrated in an alcohol series and embedded in paraffin. The paraffin blocks were sliced in a Micron HM310 microtome into […]. The sections were stained with haematoxylin and eosin and with toluidine blue. Histological analysis was performed using a Nikon Eclipse 801light microscope. Morphometric estimations of neutrophils, macrophages, lymphocytes and mast cells in the perivascular and subepithelial connective tissue were performed on the histological slides containing cross-sections of auricles. Cells were counted on an area of 0.07 mm^2 at 400× magnification. Morphometric analysis was performed using an imagine software NIS-Elements (Nikon). For every preparation examined, 25 enumerations of neutrophils, macrophages, lymphocytes and mast cells were carried out.

[2] = tested on: CBA mice, cellular immune response to ovalbumin; test: Delayed type hypersensitivity (DTH) test to ovalbumin; assay type: in vivo; details: two 100 μg intraperitoneal doses; FIG. 7
Experimental: Male CBA mice 8-12 weeks old were delivered by The Institute of Laboratory Medicine, Lodz, Poland. The mice had free access to water and pelleted food. Ovoalbumin was from Sigma and the adjuvants from Difeo.
Mice were sensitized subcutaneously with 5 μg of ovalbumin (OVA) emulsified in Freund's complete adjuvant in the tail base. After 4 days the mice were challenged with 50 μg of OVA in Freund's incomplete adjuvant in the hind footpads. Following the next 24 hours, the footpad thickness was measured using a caliper. Controls (background response mice) were not sensitized but received the challenging dose of OVA. The compound of formula I-A and the reference compound were administered to mice in two 100 μg intraperitoneal doses, 2 h before and 24 h after the sensitizing dose of antigen.

[3] = tested on: LPS-induced TNF-α production; assay type: cell-based; details: for % inhibition vs. DMSO / TNF-α: Table 2A
Experimental: Human whole blood was diluted 10-fold with RPMI-1640 medium and distributed to 24-well culture plates in 1 ml aliquots. LPS was added to the culture at a concentration of 1 μg/ml. The studied peptides were used at concentrations of 1, 10 and 100 μg/ml. After overnight incubation, the supernatants were harvested and frozen at −20° C. until cytokine determination. TNF-α activity was determined using a bioassay. Briefly, WEHI 164.13 cells (ATCC CRL 1751) were seeded at a concentration of 2×10^4 cells/well in quadriplicate. Increasing dilutions of the assayed supernatant were mixed with the target cells in the presence of actinomycin D (1 μg/ml). After 20 h of incubation, MTT was added into the wells, and the cultures were incubated for an additional 4 h. […] The detection limit of the assay was about 2.5 pg/ml. One unit of TNF-α activity was defined as an inverse of supernatant dilution where 50% cell death took place. The cultures labeled “Control (−)” contained no LPS. The cultures labeled “Control (LPS)” contained LPS and none of the studied compounds. Statistical analysis was not applied since the data derive from single cultures (wells).

For `O=C1C[C@H](Cc2ccccc2)NC(=O)[C@@H]2CCCN2C(=O)[C@@H]2CCCN2C(=O)[C@H](Cc2ccccc2)N1` [I-A] (cyclo(FPP[β3hF])), the “ear thickness, P vs Control” value ([1]; 5 h after challenge, Day 14, topical 1 h after each TDI challenge, FIG. 10A) was 0.0005, the “ear thickness, P vs Control” value ([1]; 5 h after challenge, Day 17, FIG. 10A) was 0.0001 and the “ear thickness, P vs Control” value ([1]; 5 h after challenge, Day 20, FIG. 10A) was 0.0001. The “ear thickness, P vs Control” value ([1]; 5 h after challenge, Day 23, FIG. 10A) was 0.0001, the “ear thickness, P vs Control” value ([1]; 5 h after challenge, Day 27, FIG. 10A) was 0.0001 and the “ear thickness, P vs Control” value ([1]; 24 h after challenge, Day 14, FIG. 10B) was 0.0001. For the same compound, the “ear thickness, P vs Control” value ([1]; 24 h after challenge, Day 17, FIG. 10B) was 0.0001, the “ear thickness, P vs Control” value ([1]; 24 h after challenge, Day 20, FIG. 10B) was 0.0006 and the “ear thickness, P vs Control” value ([1]; 24 h after challenge, Day 23, FIG. 10B) was 0.0001. The “ear thickness, P vs Control” value ([1]; 24 h after challenge, Day 27, FIG. 10B) was 0.0001, the “permeability of capillary blood vessels in the Evans blue test, P vs Control” value ([1]; 24 h after the fifth challenge with TDI (day 28), FIG. 11) was 0.030 and the “total number of cells in the draining lymph nodes, P vs Control” value ([1]; ANOVA of Kruskal-Wallis, FIG. 12) was 0.0001. The “numbers of circulating leukocytes, P vs Control” value ([1]; ANOVA, FIG. 13) was 0.0001, the “total number of cells in the draining lymph nodes” value ([1]; FIG. 12) was “reduction of the lymph node cell numbers almost to the background levels” and the “blood cell composition, Eosinophils (E), P vs Control” value ([1]; FIG. 14) was 0.0001. For the same compound, the “blood cell composition, Lymphocytes (L), P vs Control” value ([1]; FIG. 14) was 0.0043, the “blood picture (neutrophil and eosinophil contents)” value ([1]; FIG. 14) was “normalized” and the “auricle Ne (neutrophils), P vs Control” value ([1]; FIG. 15) was 0.0151. The “cell numbers in the auricles after treatment” value ([1]; area 0.07 mm^2, cell type not stated, sensitized untreated control: 20 mastocytes, 23 neutrophils, FIG. 15) was 14.8 cells per the analyzed area, the “effect on delayed-type hypersensitivity reaction to OVA (footpad thickness)” value [2] was “inhibited the delayed-type hypersensitivity reaction to OVA” and the “suppressive action on DTH compared with reference compounds” value [2] was “stronger than those of CLA and CsA”. For the same compound, the “% inhibition vs. DMSO” value ([3]; compound 1 μg/ml) was 9.8%, the TNF-α ([3]; compound 1 μg/ml, LPS 1 μg/ml, overnight) was 7364 pg/mL and the “% inhibition vs. DMSO” value ([3]; compound 10 μg/ml) was 10.4%. For the same compound, the TNF-α ([3]; compound 10 μg/ml) was 7176 pg/mL, the “% inhibition vs. DMSO” value ([3]; compound 100 μg/ml) was 9.2% and the TNF-α ([3]; compound 100 μg/ml (DMSO only: 196)) was 178 pg/mL. The “% of inhibition vs. DMSO” value ([3]; Table 2B, compound 1 μg/ml) was 10.0%, the TNF alpha ([3]; Table 2B, compound 1 μg/ml) was 4097 pg/mL and the TNF alpha ([3]; Table 2B, compound 10 μg/ml) was 4416 pg/mL. For the same compound, the TNF alpha ([3]; Table 2B, compound 100 μg/ml (DMSO only: 854)) was 979 pg/mL.
